{"source": "patent US20240156090A1", "about": "“SUSPENSION CONCENTRATE ACYLHYDRAZONE APYRASE INHIBITOR FORMULATION” (Texas Crop Science, priority 2022, published 2024)", "assay_type_in_all_cases": "physicochemical", "key": {"[1]": {"experiment": "Solubility of Compound 1 in water"}, "[2]": {"experiment": "Chemical stability as a function of pH in PBS (Example 6)", "conditions": "for remaining amount of Compound 1: 5 μM", "protocol": "A working solution of Compound 1 was prepared in dimethyl sulfoxide at a concentration of 500 μM. 2 μL of the working solution and 198 μL of PBS pH 4.5 or PBS pH 7.4 were added into glass vials to achieve a final concentration of 5 μM. The setup was performed in duplicate. Vials were incubated at 37° C. at 60 rpm in a water bath and taken at designated time points of 0, 2, 4, 6 and 24 hours. For each time point, the incubations were terminated with 1000 μL cold acetonitrile containing internal analytical reference standards. Samples were vortexed for 1 minute then centrifuged at RT at 2500 g for 10 minutes. Aliquots of 200 μL of the supernatant were used for LC-MS/MS analysis."}, "[3]": {"experiment": "Long term chemical stability of aqueous suspension concentrate as a function of pH, HPLC (Example 7)", "conditions": "30 wt % suspension concentrate", "protocol": "Method: An aqueous suspension concentrate was prepared with the following composition: 30 wt % Compound 1, 2.5 wt % tristyrylphenol ethoxylate surfactant, 2.0 wt % ethyleneoxide-propyleneoxide block co-polymeric dispersant, 5.0 wt % propylene glycol freeze protectant, 0.1 wt % silicone oil antifoam, 52.4% distilled water, and after 2 hours of milling were added 8.0 wt % viscosity modifier gel comprising 2.0% xanthan and 1.0% biocide in water. Aliquots of this suspension were taken and adjusted to pH 6, 7 and 8 with respectively 10 wt % sulfuric acid, pH10 borate buffer and 10 wt % sodium hydroxide. The three samples were sub-divided and stored at room temperature (RT, approximately 25° C.) and 38° C. Control samples were stored at 0° C. for reference. Aliquots were withdrawn periodically and diluted in acetonitrile for analysis by HPLC."}}, "data": [{"smiles": "C/C(=N\\NC(=O)c1cccc(C)c1)c1ccc2ccccc2c1", "note": "[Compound 1, (E)-3-methyl-N′-(1-(naphthalen-2-yl)ethylidene)benzohydrazide]", "values": [{"measurement": "solubility", "setting": "[1]", "result": "< 5", "unit": "µM"}, {"measurement": "remaining amount of Compound 1", "setting": "[2]; PBS pH 4.5, 37° C., 0 hr", "result": 100, "unit": "%"}, {"measurement": "remaining amount of Compound 1", "setting": "[2]; PBS pH 4.5, 37° C., 2 hr", "result": 62.3, "unit": "%"}, {"measurement": "remaining amount of Compound 1", "setting": "[2]; PBS pH 4.5, 37° C., 4 hr", "result": 33.7, "unit": "%"}, {"measurement": "remaining amount of Compound 1", "setting": "[2]; PBS pH 4.5, 37° C., 6 hr", "result": 29.2, "unit": "%"}, {"measurement": "remaining amount of Compound 1", "setting": "[2]; PBS pH 4.5, 37° C., 24 hr", "result": 3.1, "unit": "%"}, {"measurement": "remaining amount of Compound 1", "setting": "[2]; PBS pH 7.4, 37° C., 0 hr", "result": 100, "unit": "%"}, {"measurement": "remaining amount of Compound 1", "setting": "[2]; PBS pH 7.4, 37° C., 2 hr", "result": 112.4, "unit": "%"}, {"measurement": "remaining amount of Compound 1", "setting": "[2]; PBS pH 7.4, 37° C., 4 hr", "result": 96.2, "unit": "%"}, {"measurement": "remaining amount of Compound 1", "setting": "[2]; PBS pH 7.4, 37° C., 6 hr", "result": 97.8, "unit": "%"}, {"measurement": "remaining amount of Compound 1", "setting": "[2]; PBS pH 7.4, 37° C., 24 hr", "result": 91.1, "unit": "%"}, {"measurement": "half-life at 5 μM", "setting": "[2]; mildly acidic conditions (PBS pH 4.5), 37° C., read-out: apparent half-life", "result": "> 2", "unit": "h"}, {"measurement": "estimated half-life of actual degradation in solution", "setting": "[2]; mildly acidic conditions, corrected for solubility below 5 μM", "result": "below one"}, {"measurement": "amount of Compound 1 remaining", "setting": "[3]; pH 6 sample as printed in the last sentence of b183, 38° C., 1 month", "result": 99, "unit": "%"}, {"measurement": "amount of Compound 1 remaining", "setting": "[3]; pH 6 sample as printed in the last sentence of b183, 38° C., 9 months", "result": 103, "unit": "%"}, {"measurement": "amount of Compound 1 remaining", "setting": "[3]; pH 6 sample, 38° C., 1 month", "result": 103, "unit": "%"}, {"measurement": "amount of Compound 1 remaining", "setting": "[3]; pH 6 sample, 38° C., 9 months", "result": 94, "unit": "%"}, {"measurement": "amount of Compound 1 remaining", "setting": "[3]; pH 6 sample, RT, 1 month", "result": 99, "unit": "%"}, {"measurement": "amount of Compound 1 remaining", "setting": "[3]; pH 6 sample, RT, 9 months", "result": 86, "unit": "%"}, {"measurement": "amount of Compound 1 remaining", "setting": "[3]; pH 7 sample, 38° C., 1 month", "result": 104, "unit": "%"}, {"measurement": "amount of Compound 1 remaining", "setting": "[3]; pH 7 sample, 38° C., 9 months", "result": 89, "unit": "%"}, {"measurement": "amount of Compound 1 remaining", "setting": "[3]; pH 7 sample, RT, 1 month", "result": 103, "unit": "%"}, {"measurement": "amount of Compound 1 remaining", "setting": "[3]; pH 7 sample, RT, 9 months", "result": 76, "unit": "%"}, {"measurement": "amount of Compound 1 remaining", "setting": "[3]; pH 8 sample, RT, 1 month", "result": 99, "unit": "%"}, {"measurement": "amount of Compound 1 remaining", "setting": "[3]; pH 8 sample, RT, 9 months", "result": 102, "unit": "%"}]}]}
